What all share (type): cell-based
In one experiment the test system is HIV-1Ba-L. Briefly: HIV-1 production by chronically infected MDM, p24-core antigen ELISA. The conditions noted are these: Fig 6D; APHS added 5 days after infection, 2 days of incubation. The procedure:
(A, B) Peripheral blood mononuclear cells (PBMC) were isolated from heparinized blood from HIV-1-, HIV-2-, and hepatitis B-seronegative donors and obtained on Ficoll-Hypaque density gradients. Cells were washed twice, stimulated with 5 µg/ml phytohemagglutinin (PHA), and cultured m RPMI-1640 medium supplemented with 5 mM Hepes, 19 mM sodium bicarbonate, 10 µg/mL gentamicin, and 10% heat-inactivated fetal calf serum (PBMC culture medium) at a concentration of 2 x 10^6 cells/ml. After 3 days of incubation stimulated PBMC were recovered from the flasks and infected for 2 hours with HIV-1Ba-L at a multiplicity of infection of 0.01. Afterwards, HIV-infected and mock-infected PBMC were washed twice to remove unbound virus. […] (B) PBMC were cultured in suspension at a concentration of 2 x 10^6 cells/ml in Teflon flasks in PBMC culture medium. […] After 2 days of incubation samples of culture supernatant were collected. p24-core antigen production was quantified using the enzyme-linked immunosorbent assay (ELISA) system of John Moore. […] (C, D) PBMC were isolated from heparinized blood from HIV-1-, HIV-2-, and hepatitis B-seronegative donors and obtained on Ficoll-Hypaque density gradients. […] After 2 days of incubation samples of culture supernatant were collected. p24-core antigen production was quantified using the enzyme-linked immunosorbent assay (ELISA) system of John Moore. […]

The next experiment concerns HIV-1. Briefly: IC50 determination of an anti-viral (Table 3). The conditions noted are these: Human immunodeficiency virus 1.
The test system of a further experiment is HXB2. In words: IC50 of APHS for HIV-1 strains (Table 2), sensitive strain. The conditions noted are these: Human immunodeficiency virus 1, HXB2, read-out: IC50 of APHS.

Take `CCCCC#CCSc1ccccc1OC(C)=O` [APHS, o-(acetoxy-phenyl)hept-2-ynyl sulphide]: in the experiment on HIV-1Ba-L, the “inhibition of HIV-1 production by chronically infected MDM” value was “does not inhibit”. Further, the concentration for half-maximal inhibition (IC50) worked out at 10 µM in the experiment on HIV-1 and 12.6 ± 2.3 µM with HXB2.

Values taken from patent publication EP1263429B1, “ANTIVIRAL THERAPY” (Universiteit Utrecht, priority 2000, dated 2001).
